# Measured values reported in article PMC6688997 (Nature Communications, 2019).
# “And” between values parts separate entries of the source, which are not always exact repeats. Identical values can stand only once. Like-named read-outs stand apart in the source and are kept apart here.
# Legend:
# [1] = system: Ba/F3-CD74-ROS1 L1951R cells; experiment: CellTiter-Glo cell viability assay; format: cell-based, murine; settings: Mus musculus
# [2] = system: Ba/F3-CD74-ROS1 D2033N cells; experiment: CellTiter-Glo cell viability assay; format: cell-based, murine; settings: Mus musculus
# [3] = system: parental Ba/F3 cells (with IL-3); experiment: CellTiter-Glo cell viability assay; format: cell-based, murine; settings: Mus musculus
# [4] = Crizotinib 100 mg/kg po; for Body Weight Change(%) (average / SD): N 6
# [5] = system: Ba/F3-CD74-ROS1 L2026M cells; experiment: CellTiter-Glo cell viability assay; format: cell-based, murine; settings: Mus musculus
# [6] = system: SLC34A2-ROS1-G2032R overexpressing HCC78xe3 cells; experiment: Cell viability in 3D culture, CellTiter-Glo; format: cell-based; settings: 72 h
# [7] = system: Ba/F3-CD74-ROS1 G2032R cells; experiment: CellTiter-Glo cell viability assay; format: cell-based, murine; settings: Mus musculus
# [8] = system: Ba/F3-TPM3-NTRK1 cells (WT); experiment: CellTiter-Glo cell viability assay; format: cell-based, murine; settings: Mus musculus, 72 h
# [9] = system: phospho-ROS1 in MGH193-1B cells; experiment: Immunoblot of ROS1 autophosphorylation; format: cell-based, human; settings: 6 h
# Description: (§1) Lysates were prepared using 1x SDS lysis buffer (1% SDS and 10% glycerol in 100 mM Tris–HCl [pH 7.5])[27]. […] All the primary antibody was used 1:1000 dilution for immunoblot analysis.
# [10] = system: phospho-ROS1 in JFCR-168 cells; experiment: Immunoblot of ROS1 autophosphorylation; format: cell-based, human; settings: 6 h
# Description: as §1
# [11] = system: phospho-ROS1 in JFCR-165 cells; experiment: Immunoblot of ROS1 autophosphorylation; format: cell-based, human; settings: 6 h
# Description: as §1
# [12] = system: Ba/F3-CD74-ROS1 cells (WT); experiment: CellTiter-Glo cell viability assay; format: cell-based, murine; settings: Mus musculus
# [13] = system: HCC78xe3-SLC34A2-ROS1-WT xenograft; format: in vivo, mouse; design: Tumor volume LWW/2: unit not given here
# [14] = system: ROS1-rearranged NSCLC patients; settings: cited from earlier work
# [15] = system: phospho-ROS1 in HCC78xe3-SLC34A2-ROS1-G2032R xenograft tumors; experiment: Immunoblot of xenograft tumors; format: in vivo, mouse; settings: 3 days treatment
# [16] = Body weight of Ba/F3-CD74-ROS1-WT xenograft mice; format: in vivo, mouse; settings: Crizotinib 100 mg/kg po; for Body Weight Change(%) (average / SD): N 6
# [17] = system: HCC78xe3-SLC34A2-ROS1-G2032R xenograft; format: in vivo, mouse
# [18] = system: Ba/F3-CD74-ROS1-WT xenograft; format: in vivo, mouse; settings: for Tumor volume (average / SE): ROS1-WT xenograft, 100 mg/kg po
# [19] = Crizotinib 100mg/kg, day 0, single mouse, in mm³
# [20] = Crizotinib 100mg/kg, day 3, single mouse, in mm³
# [21] = Crizotinib 100mg/kg, day 6, single mouse, in mm³
# [22] = Crizotinib 100mg/kg, day 9, single mouse, in mm³
# [23] = Crizotinib 100mg/kg, day 14, single mouse, in mm³
# [24] = Crizotinib 100mg/kg, day 17, single mouse, in mm³
# [25] = Crizotinib 100mg/kg, day 25, single mouse, in mm³
# [26] = Crizotinib 100mg/kg, day 28, single mouse, in mm³
# [27] = Crizotinib 100mg/kg, day 35, single mouse, in mm³
# [28] = Crizotinib 100mg/kg, day 38, single mouse, in mm³
# [29] = Crizotinib 100mg/kg, day 43, single mouse, in mm³
# [30] = Crizotinib 100mg/kg, day 48, single mouse, in mm³
# [31] = Crizotinib 100mg/kg, day 52, single mouse, in mm³
# [32] = Crizotinib 100mg/kg, day 55, single mouse, in mm³
smiles,measurement,setting,value
"C[C@@H](Oc1cc(-c2cnn(C3CCNCC3)c2)cnc1N)c1c(Cl)ccc(F)c1Cl [crizotinib, reference compound]",IC50,[1]; 72 h,[…]
same,IC50,"[3]; BaF3, 72 h",812 nM
same,GI50,"[3]; BaF3, source data sheet",798 nM
same,Body Weight Change(%) (average / SD),"[4]; day 0, average",0.0%
same,Body Weight Change(%) (individual),"[4]; day 0, individual animals",0%
same,Body Weight Change(%) (average / SD),"[4]; day 1, average",-1.6%
same,Body Weight Change(%) (average / SD),"[4]; day 2, average",-0.4%
same,Body Weight Change(%) (average / SD),"[4]; day 3, average",-0.3%
same,Body Weight Change(%) (average / SD),"[4]; day 4, average",0.5%
same,Cell growth inhibition,[6],much higher than those to WT cells
same,IC50,[8],21.4 nM
same,Inhibition of autophosphorylation of ROS1,[9],potently inhibited
same,Inhibition of autophosphorylation of ROS1,[10],potently inhibited
same,Inhibition of autophosphorylation of ROS1,[11],potently inhibited
same,Tumor volume LWW/2,[13]; [19],172.7 and 167.7
same,Tumor volume LWW/2,[13]; [20],103.2 and 100.2
same,Tumor volume LWW/2,[13]; [21],67.8 and 77.3
same,Tumor volume LWW/2,[13]; [22],39.9
same,Tumor volume LWW/2,[13]; [23],13.2
same,Tumor volume LWW/2,[13]; [24],18.9 and 19.3
same,Tumor volume LWW/2,[13]; [25],5.2
same,Tumor volume LWW/2,[13]; [26],6.5
same,Tumor volume LWW/2,[13]; [27],8.7
same,Tumor volume LWW/2,[13]; [28],5.4
same,Tumor volume LWW/2,[13]; [29],4.9
same,Tumor volume LWW/2,[13]; [30],7.2
same,Tumor volume LWW/2,[13]; [31],15.8
same,Tumor volume LWW/2,[13]; [32],16.3
same,Tumor volume LWW/2,"[13]; HCC78_Xe3_WT xenograft, BALB/c-nu mice, Crizotinib 50mg/kg, day 25, individual mice No. 7-12",44.9 and 36.7 and 19.6
same,Tumor volume LWW/2,"[13]; HCC78_Xe3_WT xenograft, BALB/c-nu mice, Crizotinib 50mg/kg, day 43, individual mice No. 7-12",75.9 and 129.8 and 100.2
same,Median progression-free survival,[14],19.2 months
same,Overall response rate,[14],72%
same,Inhibition of phospho-ROS1 in tumors,[15],in SLC34A2-ROS1-WT-expressing HCC78xe3 cells only
same,Body Weight Change(%) (average / SD),"[16]; day 0, average",0.0%
same,Body Weight Change(%) (individual),"[16]; day 0, individual animals",0%
same,Body Weight Change(%) (average / SD),"[16]; day 1, average",-2.0%
same,Body Weight Change(%) (individual),"[16]; day 1, individual animals",-1% and -1.4% and -4.2% and -2.7% and -0.5% and -2.3%
same,Body Weight Change(%) (average / SD),"[16]; day 2, average",-1.9%
same,Body Weight Change(%) (individual),"[16]; day 2, individual animals",-1.9% and -0.5% and -3.3% and -1.8%
same,Body Weight Change(%) (average / SD),"[16]; day 3, average",-1.7%
same,Body Weight Change(%) (individual),"[16]; day 3, individual animals",-2.4% and -1.4% and -4.2% and 2.3% and -2.8%
same,Body Weight Change(%) (average / SD),"[16]; day 4, average",-4.4%
same,Body Weight Change(%) (individual),"[16]; day 4, individual animals",-3.9% and -3.8% and -6.5% and -2.3% and -5.3% and -4.6%
same,Tumor growth inhibition,[17]; 50 and 100 mg/kg once daily oral,highly resistant to crizotinib
same,Tumor volume LWW/2,[17]; [19],154.5
same,Tumor volume LWW/2,[17]; [20],162.2 and 132.5
same,Tumor volume LWW/2,[17]; [21],164.7 and 110.8
same,Tumor volume LWW/2,[17]; [22],136.2 and 132.2
same,Tumor volume LWW/2,[17]; [23],155.8 and 119.8
same,Tumor volume LWW/2,[17]; [24],174.0 and 154.2
same,Tumor volume LWW/2,"[17]; Crizotinib 100mg/kg, day 21, single mouse, in mm³",274.9 and 242.5
same,Tumor volume LWW/2,[17]; [25],238.7 and 300.2
same,Tumor volume LWW/2,[17]; [26],247.6 and 347.9
same,Tumor volume LWW/2,"[17]; Crizotinib 100mg/kg, day 31, single mouse, in mm³",309.9 and 336.1
same,Tumor volume LWW/2,[17]; [27],418.2 and 509.9
same,Tumor volume LWW/2,[17]; [28],526.9 and 595.5
same,Tumor volume LWW/2,[17]; [29],740.1 and 596.0
same,Tumor volume LWW/2,[17]; [30],745.2 and 699.2
same,Tumor volume LWW/2,[17]; [31],846.3 and 852.5
same,Tumor volume LWW/2,[17]; [32],921.5 and 834.7
same,Tumor volume LWW/2,"[17]; HCC78_Xe3_G2032R xenograft, BALB/c-nu mice, Crizotinib 50mg/kg, day 6, individual mice No. 7-12",127.8 and 126.6
same,Tumor volume LWW/2,"[17]; HCC78_Xe3_G2032R xenograft, BALB/c-nu mice, Crizotinib 50mg/kg, day 17, individual mice No. 7-12",278.8 and 148.6 and 98.2
same,Survival,"[17]; Kaplan–Meier, 50 and 100 mg/kg",did not show any superiority to the control group
same,Tumor shrinkage,"[18]; 100 mg/kg once daily oral, 4 days",induced tumor shrinkage
same,Tumor volume (average / SE),"[18]; day 0, N 6",289 mm3
same,Tumor volume (average / SE),"[18]; day 2, N 6",151 mm3
same,Tumor volume (average / SE),"[18]; day 4, N 6",44 mm3
